≈ marks a conversion by molar mass, not a printed value.

In one test the test system is Mycobacterium tuberculosis variant bovis. Description: In vitro minimum inhibitory concentration dissolved in DMSO against Mycobacterium bovis BCG using BACTEC 460 radiometric system; Range=0.75-1.5 ug/mL. In kind it is functional.
On to `CCCCCCCCCCS(=O)(=O)NC(C)=O`, for which the MIC99 (commonly the lowest concentration that inhibits either 99% of growth or 99% of the strains tested, depending on the study) was determined as 1.5 µg/mL (≈ 5.69 µM).

Another test has the same test system. Kind of test: In vitro minimum inhibitory concentration dissolved in DMSO against Mycobacterium bovis BCG using BACTEC 460 radiometric system. The class given is functional.
The compound `C=CCNC(=O)[C@@H]1C(=C)C(=O)O[C@H]1CCCCCC` yielded an MIC99 of 12.5 µg/mL (≈ 47.1 µM).
Still for that read-out and setting: with `C=C1C(=O)O[C@@H](CCCCCCCC)[C@@H]1C(=O)NCC(=O)O` the figure was more than 25 µg/mL; with `C=C1C(=O)O[C@@H](CCCCCCCC)[C@@H]1C(=O)NCC(=O)OC`, 25 µg/mL (≈ 76.8 µM); with `C=C1C(=O)O[C@@H](CCCCCCCC)C1C(=O)O` (stereo not given in full), more than 25 µg/mL.
Same read-out and setting: with `C=C1C(=O)O[C@@H](CCCCCCCC)C1C(=O)OC` (stereo not given in full) the figure was more than 25 µg/mL; with `C=C1C(=O)O[C@@H](CCCCCCCC)[C@@H]1C(=O)NNc1cccc(Cl)c1`, more than 25 µg/mL; with `C=CCNC(=O)[C@@H]1C(=C)C(=O)O[C@H]1CCCCCCCCCCCC`, 6.25 µg/mL (≈ 17.9 µM).
Compound `C=C1C(=O)O[C@@H](CCCCCCCC)[C@@H]1C(=O)NCc1ccccc1` returned an MIC99 of 25 µg/mL (≈ 72.8 µM).
Same read-out and setting: under `CCCC[C@@H]1OC(=O)C(=O)C1C(=O)OC` (stereo not given in full) stands more than 25 µg/mL; under `C=CCNC(=O)[C@H]1[C@H](CCCCCCCC)OC(=O)[C@H]1C`, more than 25 µg/mL; under `C=CCNC(=O)[C@H]1[C@H](CCCCCCCC)OC(=O)[C@@H]1C`, more than 25 µg/mL.
Same read-out and setting: with `C=CCNC(=O)[C@@H]1C(=C)C(=O)O[C@H]1CCCCCCCC` the figure was 12.5 µg/mL (≈ 42.6 µM).
The same measure, in the same setting: under `C=C1C(=O)O[C@@H](CCCCCCCC)[C@@H]1C(=O)NCCO` stands 25 µg/mL (≈ 84.1 µM); under `CCCCCCCCCC[C@@H]1OC(=O)C(=O)C1C(=O)OC` (stereo not given in full), more than 25 µg/mL; under `CCCCCCCC[C@@H]1OC(=O)C(=O)C1C(=O)OC` (stereo not given in full), more than 25 µg/mL.
For the compound `C=CCNC(=O)[C@@H]1C(=C)C(=O)O[C@H]1CCCC`, the MIC99 is 12.5 µg/mL (≈ 52.7 µM).
Still for that read-out and setting: under `C=C1C(=O)O[C@@H](CCCCCCCC)[C@@H]1C(=O)NC/C=C/CC(=O)OC` stands 25 µg/mL (≈ 68.4 µM); under `C=CCNC(=O)OCCNC(=O)[C@@H]1C(=C)C(=O)O[C@H]1CCCCCCCC`, more than 25 µg/mL.
Turning to `NNC(=O)c1ccncc1` [ISONIAZID], the MIC99 worked out at 0.1 µg/mL (≈ 0.729 µM).

The record behind these values is ChEMBL document CHEMBL1142794, “New alpha-methylene-gamma-butyrolactones with antimycobacterial properties” (2005).
